From PMC9124866, “Structure-Activity Relationships of Dopamine Transporter Pharmacological Chaperones” (Frontiers in Cellular Neuroscience, 2022) come the findings set out here.

Each structure is given as a SMILES string.

One assay has as its target T1, WT DAT (YFP-HA-DAT) (Homo sapiens, UniProt Q01959).
T1 construct: expressed in transfected cells; host or cells: HEK293
Put plainly: Western blot of mature WT DAT protein levels. The following applies: overnight 100 μM. Format: cell-based. The method, then: Cells (1 × 10^6 cells/well) were seeded onto a 6-well plate and incubated for 24 h. Cells were then treated with drugs and incubated for 16 h. After the incubation period, cells were lysed in RIPA buffer supplemented with protease inhibitors (working concentrations: pepstatin A, 5 μg/mL; leupeptin, 10 μg/mL; aprotinin, 1.5 μg/mL; benzamidine, 0.1 μg/mL; PMSF, 0.1 mM) on ice. At 4°C, cell lysates were gently shaken for 15 min followed by centrifugation at 15,000 rpm for 15 min to pellet debris. The Pierce BCA protein assay kit (Thermo Fisher Scientific, Canada) was used to determine the protein concentration of the supernatant. To reach a concentration of 40 μg of protein per 20 μL, samples were diluted in fresh RIPA buffer with 12.5% Laemmli sample buffer and 2.5% β-Mercaptoethanol prior to being heated to 55°C. The protein was then loaded on a 7.5 or 10% SDS-PAGE gel and run at 100 V for approximately an hour or until the dye front reached the bottom of the gel. Next, protein was transferred to a PVDF membrane at 22 V for 16 h or 100 V for 1 h. Blots were blocked with LI-COR blocking buffer for 1 h and incubated for 1 h at room temperature with rabbit anti-GFP (1:1,000 dilution; Life Technologies, cat#A11122). After washing three times with TBST, blots were incubated with goat anti-rabbit IRDye-680RD secondary antibody (1:15,000; LI-COR, cat#926-68071). As a loading control, blots were incubated with mouse anti-GAPDH (1:5,000, Sigma-Aldrich, Canada, cat#G8795) prior to secondary antibody goat anti-mouse IRDye-800GR (1:5,000 dilution, Rockland, Limerick, PA, cat#610-132-007). All antibodies were diluted in LI-COR blocking buffer. Additionally, REVERT total protein staining (LI-COR, Lincoln, NE) was used as a loading control. […] Mature, fully glycosylated DAT (mDAT = 110 kDa) and immature, ER-resident DAT (iDAT = 75 kDa) were visualized using the Odyssey Imaging System (LI-COR, Lincoln, NE) and Image Studio Version 5.2 software (Supplementary Figure 1).
We next assessed whether drugs that increase DAT surface expression also increase total protein levels of DAT. Cells expressing YFP-HA-DAT were incubated with select test compounds and DAT protein levels were examined by western blot. The effects of the compounds were assessed on WT DAT and K590A DAT. The K590A mutant is a well-characterized ER-retained, trafficking-deficient DAT mutant ([Miranda et al., 2004]) that can be rescued by pharmacological chaperones ([Beerepoot et al., 2016]).
FIGURE 5 Effect of noribogaine, tetrahydroharmine, PAL-594, bicifadine, and RTI-20 on WT and K590A DAT expression. […] (B) Quantification of WT mDAT protein levels. […] (D) Quantification of K590A mDAT protein levels. […]
In general terms: Immunoblotting shows a protein as a band on a membrane.

The target in the next assay is T2, DAT (Homo sapiens, UniProt Q01959).
T2 construct: expressed in transfected cells
T2 sequence (Q01959 whole entry): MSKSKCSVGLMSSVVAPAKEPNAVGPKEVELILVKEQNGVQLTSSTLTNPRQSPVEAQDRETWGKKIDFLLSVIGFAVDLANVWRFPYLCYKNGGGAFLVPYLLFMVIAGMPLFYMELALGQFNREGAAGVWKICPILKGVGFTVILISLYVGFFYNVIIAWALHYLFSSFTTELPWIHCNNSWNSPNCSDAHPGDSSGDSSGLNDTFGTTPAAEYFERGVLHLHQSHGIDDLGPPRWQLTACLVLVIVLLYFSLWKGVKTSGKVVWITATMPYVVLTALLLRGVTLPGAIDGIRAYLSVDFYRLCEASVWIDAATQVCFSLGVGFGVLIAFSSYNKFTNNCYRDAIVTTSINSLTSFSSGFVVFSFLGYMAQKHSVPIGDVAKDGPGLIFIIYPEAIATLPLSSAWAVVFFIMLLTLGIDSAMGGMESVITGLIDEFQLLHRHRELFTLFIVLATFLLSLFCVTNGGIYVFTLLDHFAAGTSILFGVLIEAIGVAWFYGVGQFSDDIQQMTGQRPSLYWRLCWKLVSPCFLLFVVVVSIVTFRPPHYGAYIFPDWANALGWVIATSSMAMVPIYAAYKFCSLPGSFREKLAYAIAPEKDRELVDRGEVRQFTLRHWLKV
The assay is described as follows: Dopamine uptake inhibition dose response of hit compounds (Figure 6). As to conditions: doses 1 nM to 100 μM, normalized to vehicle. Format: cell-based. On the procedure: Dopamine uptake inhibition was conducted using the Neurotransmitter Transporter Uptake Assay Kit (Molecular Devices, prod#R8173). Cells (1 × 10^5/well) were seeded into 96-well plates and incubated for 24 h. The cells were subjected to overnight drug treatment. The following day, wells were washed and incubated for 30 min with a mixture of 1X Hank’s Balanced Salt Solution (HBSS) and 0.1% Bovine Serum Albumin (BSA) Buffer. Dopamine uptake inhibitors were added during the incubation period. Following the incubation, the fluorescent dye was added, and the plate was immediately transferred to the bottom-read fluorescence microplate reader (Spectramax M3, Molecular Devices) for kinetic read-mode. The assay reads the amount of fluorescent activity which increases as fluorescent dye molecules are transported into the cells by the DAT. The read-out for this assay is the slope which equals the fluorescent measurements/time, ultimately denoting the uptake rate.
Data analysis was performed using GraphPad Prism (GraphPad Software, La Jolla, CA). Linear regression analysis was performed on βLAC time points to determine the slope, thus the rate of reaction, for comparison. Furthermore, the slope was also used to determine the degree of dopamine uptake in the dopamine uptake assays. […]

T1 sequence (Q01959 whole entry): as above

With `CCC1CC2CC3c4[nH]c5ccc(O)cc5c4CCN(C2)C13` (centres unmarked) [Noribogaine, reference compound], the “mature WT DAT (mDAT) protein levels” value on WT DAT (YFP-HA-DAT) was “significantly increase”. Also, the “maximal dopamine uptake inhibition” value on DAT was found to be 76%.
